In DBAASP:
Converted amounts (≈) assume the structure as drawn.

Legend:
Assay in all cases: ≥ marks a high value that may be exact or a test limit, other limits are often not marked, values filed in µg/mL are converted to µM
[1] = system: Bacillus subtilis ATCC 6633
[2] = system: Escherichia coli ATCC 25922
[3] = system: Pseudomonas aeruginosa ATCC 9027
[4] = system: Salmonella enterica subsp. enterica serovar Typhi ATCC 6399
[5] = system: Staphylococcus aureus ATCC 25923
Streptococcus agalactiae = system: Streptococcus agalactiae
[6] = system: Bacillus pumilus CVCC 709
[7] = system: Bacillus subtilis CVCC 717
[8] = system: Escherichia coli CVCC 1570
[9] = system: Micrococcus luteus CVCC 1600
[10] = system: Staphylococcus aureus CVCC 1882
Botrytis cinerea = system: Botrytis cinerea
[11] = system: Candida albicans ATCC 10231
[12] = system: Escherichia coli ATCC 11775
[13] = system: Staphylococcus aureus ATCC 12600
[14] = system: Enterobacter cloacae 218R
[15] = system: Enterococcus faecalis ATCC 29212
[16] = system: Enterococcus faecalis W61950
[17] = system: Enterococcus faecalis f43559
[18] = system: Enterococcus faecium mic80
[19] = system: Enterococcus faecium t62764
[20] = system: Escherichia coli ESBL 63103
[21] = system: Escherichia coli ESBL 64771
[22] = system: Klebsiella pneumoniae ESBL 61962
[23] = system: Klebsiella pneumoniae ESBL 63575
[24] = system: Pseudomonas aeruginosa 198
[25] = system: Pseudomonas aeruginosa 213
Pseudomonas aeruginosa 9 = system: Pseudomonas aeruginosa 9
[26] = system: Pseudomonas aeruginosa H1027
[27] = system: Pseudomonas aeruginosa H1030
[28] = system: Pseudomonas aeruginosa LES400
[29] = system: Pseudomonas aeruginosa PAO1 H103
[30] = system: Staphylococcus aureus C623
[31] = system: Stenotrophomonas maltophilia ATCC 13637
Bacillus subtilis = system: Bacillus subtilis
Escherichia coli = system: Escherichia coli
Klebsiella pneumoniae = system: Klebsiella pneumoniae
Micrococcus luteus = system: Micrococcus luteus
Proteus mirabilis = system: Proteus mirabilis
Pseudomonas aeruginosa = system: Pseudomonas aeruginosa
Salmonella typhimurium = system: Salmonella typhimurium
Shigella dysenteriae = system: Shigella dysenteriae
Staphylococcus aureus = system: Staphylococcus aureus
[32] = system: Staphylococcus epidermidis
[33] = system: Klebsiella pneumoniae ATCC 13883
[34] = system: Staphylococcus aureus USA 300 LAC

## CC[C@H](C)[C@H](NC(=O)[C@H](CO)NC(=O)[C@H](CCCCN)NC(=O)[C@H](C)NC(=O)[C@H](C)NC(=O)[C@H](CC(N)=O)NC(=O)[C@H](Cc1c[nH]c2ccccc12)NC(=O)[C@H](CC(C)C)NC(=O)[C@@H](NC(=O)[C@H](CO)NC(=O)[C@H](CC(C)C)NC(=O)[C@@H](N)Cc1ccccc1)[C@@H](C)O)C(=O)N[C@@H](Cc1ccccc1)C(N)=O [FLSTLWNAAKSIF]
[1]
  MIC: 20 µM (≈ 29.9 µg/mL)
[2]
  MIC: 20 µM (≈ 29.9 µg/mL)
[3]
  MIC: 10 µM (≈ 15 µg/mL)
[4]
  MIC: 10 µM (≈ 15 µg/mL)
[5]
  MIC: 10 µM (≈ 15 µg/mL)
Streptococcus agalactiae
  MIC: 20 µM (≈ 29.9 µg/mL)

## CC[C@H](C)[C@H](NC(=O)[C@H](CO)NC(=O)[C@H](CCCCN)NC(=O)[C@H](CCCN=C(N)N)NC(=O)[C@H](C)NC(=O)[C@H](C)NC(=O)CN)C(=O)N[C@@H](CCCN=C(N)N)C(=O)N[C@@H](CC(C)C)C(=O)N[C@@H](Cc1cnc[nH]1)C(=O)N[C@@H](CCCN=C(N)N)C(=O)N[C@@H](CC(C)C)C(=O)N[C@@H](Cc1ccc(O)cc1)C(=O)N[C@H](C(=O)N[C@@H](Cc1c[nH]c2ccccc12)C(=O)N[C@@H](CCCCN)C(=O)N[C@@H](C)C(=O)N[C@H](C(=O)N[C@H](C(=O)N[C@@H](Cc1ccc(O)cc1)C(=O)N[C@H](C(=O)N[C@@H](CCCN=C(N)N)C(=O)O)[C@@H](C)O)[C@@H](C)CC)[C@@H](C)O)[C@@H](C)O [GAARKSIRLHRLYTWKATIYTR]
[6]
  MIC: 9 µM (≈ 24 µg/mL)
[7]
  MIC: 13.3 µM (≈ 35.4 µg/mL)
[8]
  MIC: 16.7 µM (≈ 44.5 µg/mL)
[9]
  MIC: 8 µM (≈ 21.3 µg/mL)
[10]
  MIC: 23.3 µM (≈ 62 µg/mL)

## CC[C@H](C)[C@H](N)C(=O)N[C@@H](CC(C)C)C(=O)NCC(=O)N[C@H](C(=O)N[C@H](C(=O)N[C@H](C(=O)N[C@@H](CO)C(=O)N[C@@H](CC(C)C)C(=O)N[C@@H](CC(C)C)C(=O)N[C@@H](CCCCN)C(=O)N[C@@H](CO)C(=O)N[C@@H](CC(C)C)C(N)=O)[C@@H](C)O)[C@@H](C)CC)[C@@H](C)CC [ILGIITSLLKSL]
Botrytis cinerea
  MIC: 0.394 µM (≈ 0.5 µg/mL)
[11]
  MIC: 15.7 µM (≈ 20 µg/mL)
[12]
  MIC: ≥ 78.7 µM
[13]
  MIC: 19.7 µM (≈ 25 µg/mL)

## CSCC[C@H](NC(=O)[C@@H](NC(=O)[C@H](C)NC(=O)[C@@H]1CCCN1C(=O)[C@H](CO)NC(=O)[C@@H](N)CC(C)C)C(C)C)C(=O)N[C@@H](C)C(=O)N[C@@H](CO)C(=O)N[C@@H](CC(C)C)C(=O)N[C@@H](C)C(N)=O [LSPAVMASLA]
Botrytis cinerea
  MIC: ≥ 200 µM
[11]
  MIC: > 200 µM
[12]
  MIC: ≥ 200 µM
[13]
  MIC: ≥ 200 µM

## CC[C@H](C)[C@H](NC(=O)[C@H](Cc1c[nH]c2ccccc12)NC(=O)[C@H](Cc1c[nH]c2ccccc12)NC(=O)[C@H](CCCCN)NC(=O)[C@H](CC(C)C)NC(=O)[C@H](CCCN=C(N)N)NC(=O)[C@H](CCCCN)NC(=O)[C@@H](N)CCCN=C(N)N)C(=O)N[C@@H](Cc1ccc(O)cc1)C(=O)O [RKRLKWWIY]
[14]
  MIC: 7.12 µM (≈ 9.6 µg/mL)
[15]
  MIC: 27.4 µM (≈ 37 µg/mL)
[16]
  MIC: ≥ 110 µM
[17]
  MIC: ≥ 110 µM
[18]
  MIC: 7.12 µM (≈ 9.6 µg/mL)
[19]
  MIC: 1.78 µM (≈ 2.4 µg/mL)
[20]
  MIC: 3.48 µM (≈ 4.7 µg/mL)
[21]
  MIC: 3.48 µM (≈ 4.7 µg/mL)
[22]
  MIC: ≥ 110 µM
[23]
  MIC: 27.4 µM (≈ 37 µg/mL)
[24]
  MIC: 27.4 µM (≈ 37 µg/mL)
[25]
  MIC: 27.4 µM (≈ 37 µg/mL)
Pseudomonas aeruginosa 9
  MIC: 27.4 µM (≈ 37 µg/mL)
[26]
  MIC: 3.48 µM (≈ 4.7 µg/mL)
[27]
  MIC: 27.4 µM (≈ 37 µg/mL)
[28]
  MIC: 27.4 µM (≈ 37 µg/mL)
[29]
  MIC: 13.3 µM (≈ 18 µg/mL)
[5]
  MIC: 3.48 µM (≈ 4.7 µg/mL)
[30]
  MIC: 3.48 µM (≈ 4.7 µg/mL)
[31]
  MIC: 1.78 µM (≈ 2.4 µg/mL)

## NCCCC[C@H](NC(=O)[C@H](Cc1c[nH]c2ccccc12)NC(=O)[C@H](Cc1c[nH]c2ccccc12)NC(=O)[C@H](CCCCN)NC(=O)[C@H](CCCCN)NC(=O)[C@@H](N)Cc1c[nH]c2ccccc12)C(=O)N[C@@H](CCCN=C(N)N)C(=O)N[C@@H](CCCN=C(N)N)C(=O)N[C@@H](Cc1c[nH]c2ccccc12)C(=O)O [WKKWWKRRW]
[14]
  MIC: 11 µM (≈ 16 µg/mL)
[15]
  MIC: 43.2 µM (≈ 63 µg/mL)
[16]
  MIC: ≥ 87 µM
[17]
  MIC: ≥ 87 µM
[18]
  MIC: 5.62 µM (≈ 8.2 µg/mL)
[19]
  MIC: 2.74 µM (≈ 4 µg/mL)
[20]
  MIC: 11 µM (≈ 16 µg/mL)
[21]
  MIC: 1.37 µM (≈ 2 µg/mL)
[22]
  MIC: ≥ 87 µM
[23]
  MIC: 21.2 µM (≈ 31 µg/mL)
[24]
  MIC: 21.2 µM (≈ 31 µg/mL)
[25]
  MIC: ≥ 43.2 µM
Pseudomonas aeruginosa 9
  MIC: 21.2 µM (≈ 31 µg/mL)
[26]
  MIC: 2.74 µM (≈ 4 µg/mL)
[27]
  MIC: 21.2 µM (≈ 31 µg/mL)
[28]
  MIC: 21.2 µM (≈ 31 µg/mL)
[29]
  MIC: 11 µM (≈ 16 µg/mL)
[5]
  MIC: 0.685 µM (≈ 1 µg/mL)
[30]
  MIC: 1.37 µM (≈ 2 µg/mL)
[31]
  MIC: 0.685 µM (≈ 1 µg/mL)

## CC(C)C[C@H](NC(=O)[C@@H](NC(=O)[C@H](CCCCN)NC(=O)[C@H](CO)NC(=O)[C@H](C)NC(=O)[C@@H](NC(=O)[C@H](CCCCN)NC(=O)[C@H](Cc1ccccc1)NC(=O)[C@H](CC(C)C)NC(=O)[C@H](C)NC(=O)CNC(=O)[C@H](CC(C)C)NC(=O)[C@@H](N)Cc1c[nH]c2ccccc12)C(C)C)C(C)C)C(=O)O [WLGALFKVASKVL]
Bacillus subtilis
  MIC: 4.4 µM (≈ 6.3 µg/mL)
Escherichia coli
  MIC: 8.73 µM (≈ 12.5 µg/mL)
Klebsiella pneumoniae
  MIC: 17.5 µM (≈ 25 µg/mL)
Micrococcus luteus
  MIC: 1.12 µM (≈ 1.6 µg/mL)
Proteus mirabilis
  MIC: ≥ 140 µM
Pseudomonas aeruginosa
  MIC: 69.8 µM (≈ 100 µg/mL)
Salmonella typhimurium
  MIC: ≥ 69.8 µM
Shigella dysenteriae
  MIC: 17.5 µM (≈ 25 µg/mL)
Staphylococcus aureus
  MIC: 1.12 µM (≈ 1.6 µg/mL)
[32]
  MIC: 2.17 µM (≈ 3.1 µg/mL)

## CC[C@H](C)[C@H](NC(=O)[C@H](CCCCN)NC(=O)[C@H](CCCN=C(N)N)NC(=O)[C@H](CC(C)C)NC(=O)[C@H](Cc1c[nH]c2ccccc12)NC(=O)[C@@H](N)Cc1c[nH]c2ccccc12)C(=O)N[C@@H](Cc1c[nH]c2ccccc12)C(=O)N[C@@H](Cc1c[nH]c2ccccc12)C(N)=O [WWLRKIWW]
[2]
  MIC: 25 µM (≈ 31.8 µg/mL)
[33]
  MIC: ≥ 50 µM
[34]
  MIC: 6.2 µM (≈ 7.89 µg/mL)
